Results taken from patent US12396458B2, “Fused ring substituted aromatic compound and preparation method therefor, herbicidal composition, and use thereof” (Qingdao Kingagroot Chemical Compound Co., Ltd., priority 2020, dated 2025).

Experiments:
Assay in all cases: Weeding effect in post-emergence stage (greenhouse pot test)
Type in all cases: in vivo
Conyza japonica = details: fresh weight control rate
In short: (§1)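 Greenhouse pot plants sprayed at 2-3 leaf stage (2 weeks after sowing) with compound in acetone/Tween 80 plus 1.5 L/ha methyl oleate EC, at 500, 250, 125, 60, 15, 7.5 g a.i./ha. Fresh-weight growth control scored 3 weeks later on a 0-5 scale (level 5 >85%, level 0 <5%); three replicates averaged.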

Eleusine indica = details: dose 7.5 g a.i./ha, fresh weight control rate
In short: as §1

Setaria viridis = details: dose 7.5 g a.i./ha, fresh weight control rate
In short: as §1

Digitaria sanguinalis = details: dose 7.5 g a.i./ha, fresh weight control rate
In short: as §1

Rorippa indica = details: dose 7.5 g a.i./ha, fresh weight control rate
In short: as §1

Beckmannia syzigachne = details: 3 weeks after application, fresh weight control rate
In short: as §1

Capsella bursa-pastoris = details: 3 weeks after application, fresh weight control rate
In short: as §1

Alopecurus japonicus = details: 3 weeks after application, fresh weight control rate
In short: as §1

[1] = post-emergence, dose 15 g a.i./ha, 3 weeks after application
[2] = post-emergence, dose 125 g a.i./ha, 3 weeks after application

CCOC(=O)C1(C)CC(c2cc(-n3c(=O)cc(C(F)(F)F)n(C)c3=O)c(F)cc2Cl)=NO1 (stereo not shown) [Control compound B, reference compound] was tested, and the “Activity level (growth control rate), Conyza japonica” value (shortened to “Activity level … Conyza japonica”) (Conyza japonica; post-emergence control test, dose 7.5 g a.i./ha) was 2 (Level 2: growth control rate is greater than or equal to 20% and less than 40%), the “Activity level (growth control rate), Eleusine indica” value (Eleusine indica) was 3 (Level 3: growth control rate is greater than or equal to 40% and less than 60%) and the “Activity level (growth control rate), Setaria viridis” value (Setaria viridis) was 3 (Level 3: growth control rate is greater than or equal to 40% and less than 60%). For the same compound, the “Activity level (growth control rate), Digitaria sanguinalis” value (Digitaria sanguinalis) was 2 (Level 2: growth control rate is greater than or equal to 20% and less than 40%) and the “Activity level (growth control rate), Rorippa indica” value (Rorippa indica) was 2 (Level 2: growth control rate is greater than or equal to 20% and less than 40%).
In the case of Cn1c(C(F)(F)F)cc(=O)n(-c2cc(C3=NOC4(C(=O)OCC5CCCO5)CCCC34)c(Cl)cc2F)c1=O (stereo not shown) [Compound 261], the “Activity level (growth control rate), Beckmannia syzigachne” value (“Activity level … Beckmannia syzigachne” below) (Beckmannia syzigachne; dose 15 g a.i./ha) is reported as 5 (Level 5: growth control rate is above 85%), the “Activity level … Conyza japonica” value (Conyza japonica; [1]) is reported as 4 (Level 4: growth control rate is greater than or equal to 60% and less than 85%) and the “Activity level (growth control rate), Capsella bursa-pastoris” value (from here on “Activity level … Capsella bursa-pastoris”) (Capsella bursa-pastoris; dose 15 g a.i./ha) is reported as 5 (Level 5: growth control rate is above 85%). The “Activity level (growth control rate), Alopecurus japonicus” value (“Activity level … Alopecurus japonicus” for short) (Alopecurus japonicus; dose 15 g a.i./ha) was 5 (Level 5: growth control rate is above 85%).
For COC(=O)C12CCCC1C(c1cc(N3C(=O)C4=C(CCCC4)C3=O)c(F)cc1Cl)=NO2 (stereo not shown) [Compound 542], the “Activity level … Beckmannia syzigachne” value (Beckmannia syzigachne; dose 15 g a.i./ha) was 4 (Level 4: growth control rate is greater than or equal to 60% and less than 85%), the “Activity level … Conyza japonica” value (Conyza japonica; [1]) was 4 (Level 4: growth control rate is greater than or equal to 60% and less than 85%) and the “Activity level … Capsella bursa-pastoris” value (Capsella bursa-pastoris; dose 15 g a.i./ha) was 4 (Level 4: growth control rate is greater than or equal to 60% and less than 85%). The “Activity level … Alopecurus japonicus” value (Alopecurus japonicus; dose 15 g a.i./ha) was 5 (Level 5: growth control rate is above 85%).
COCCOC(=O)C12CCCC1C(c1cc(-n3c(=O)cc(C(F)(F)F)n(C)c3=O)c(F)cc1Cl)=NO2 (stereo not shown) [Compound 245] was tested, and the “Activity level … Beckmannia syzigachne” value (Beckmannia syzigachne; dose 15 g a.i./ha) was 5 (Level 5: growth control rate is above 85%), the “Activity level … Conyza japonica” value (Conyza japonica; [1]) was 4 (Level 4: growth control rate is greater than or equal to 60% and less than 85%) and the “Activity level … Capsella bursa-pastoris” value (Capsella bursa-pastoris; dose 15 g a.i./ha) was 5 (Level 5: growth control rate is above 85%). The “Activity level … Alopecurus japonicus” value (Alopecurus japonicus; dose 15 g a.i./ha) was 5 (Level 5: growth control rate is above 85%).
For Cn1c(C(F)(F)F)cc(=O)n(-c2cc(C3=NOC4(C(=O)O)CCCC34)c(Cl)cc2F)c1=O (stereo not shown) [Compound 213], the “Activity level … Beckmannia syzigachne” value (Beckmannia syzigachne; dose 15 g a.i./ha) was 5 (Level 5: growth control rate is above 85%), the “Activity level … Conyza japonica” value (Conyza japonica; [1]) was 4 (Level 4: growth control rate is greater than or equal to 60% and less than 85%) and the “Activity level … Capsella bursa-pastoris” value (Capsella bursa-pastoris; dose 15 g a.i./ha) was 5 (Level 5: growth control rate is above 85%). The “Activity level … Alopecurus japonicus” value (Alopecurus japonicus; dose 15 g a.i./ha) was 5 (Level 5: growth control rate is above 85%).
With COC(=O)C12CCC(F)C1C(c1cc(-n3c(=O)cc(C(F)(F)F)n(C)c3=O)c(F)cc1Cl)=NO2 (stereo not shown) [Compound 441] the “Activity level … Beckmannia syzigachne” value (Beckmannia syzigachne; dose 15 g a.i./ha) was 4 (Level 4: growth control rate is greater than or equal to 60% and less than 85%), the “Activity level … Conyza japonica” value (Conyza japonica; [1]) was 4 (Level 4: growth control rate is greater than or equal to 60% and less than 85%) and the “Activity level … Capsella bursa-pastoris” value (Capsella bursa-pastoris; dose 15 g a.i./ha) was 5 (Level 5: growth control rate is above 85%). The “Activity level … Alopecurus japonicus” value (Alopecurus japonicus; dose 15 g a.i./ha) was 4 (Level 4: growth control rate is greater than or equal to 60% and less than 85%).
In the case of CCCOC(=O)C12CCCC1C(c1cc(-n3c(=O)n(C)c(=S)n(C)c3=O)c(F)cc1Cl)=NO2 (stereo not shown) [Compound 4], the “Activity level … Beckmannia syzigachne” value (Beckmannia syzigachne; dose 15 g a.i./ha) is reported as 5 (Level 5: growth control rate is above 85%), the “Activity level … Conyza japonica” value (Conyza japonica; [1]) is reported as 4 (Level 4: growth control rate is greater than or equal to 60% and less than 85%) and the “Activity level … Capsella bursa-pastoris” value (Capsella bursa-pastoris; dose 15 g a.i./ha) is reported as 5 (Level 5: growth control rate is above 85%). For the same compound, the “Activity level … Alopecurus japonicus” value (Alopecurus japonicus; dose 15 g a.i./ha) was 5 (Level 5: growth control rate is above 85%).
C#CCOC(=O)C12CCCC1C(c1cc(-n3c(=O)cc(C(F)(F)F)n(C)c3=O)c(F)cc1Cl)=NO2 (stereo not shown) [Compound 225] was tested, and the “Activity level … Beckmannia syzigachne” value (Beckmannia syzigachne; dose 15 g a.i./ha) was 5 (Level 5: growth control rate is above 85%), the “Activity level … Conyza japonica” value (Conyza japonica; [1]) was 4 (Level 4: growth control rate is greater than or equal to 60% and less than 85%) and the “Activity level … Capsella bursa-pastoris” value (Capsella bursa-pastoris; dose 15 g a.i./ha) was 5 (Level 5: growth control rate is above 85%). The “Activity level … Alopecurus japonicus” value (Alopecurus japonicus; dose 15 g a.i./ha) was 5 (Level 5: growth control rate is above 85%).
With CC(C)=NOC(=O)C12CCCC1C(c1cc(-n3c(=O)cc(C(F)(F)F)n(C)c3=O)c(F)cc1Cl)=NO2 (stereo not shown) [Compound 278] the “Activity level … Beckmannia syzigachne” value (Beckmannia syzigachne; dose 15 g a.i./ha) was 5 (Level 5: growth control rate is above 85%), the “Activity level … Conyza japonica” value (Conyza japonica; [1]) was 4 (Level 4: growth control rate is greater than or equal to 60% and less than 85%) and the “Activity level … Capsella bursa-pastoris” value (Capsella bursa-pastoris; dose 15 g a.i./ha) was 5 (Level 5: growth control rate is above 85%). The “Activity level … Alopecurus japonicus” value (Alopecurus japonicus; dose 15 g a.i./ha) was 5 (Level 5: growth control rate is above 85%).
In the case of Cn1c(=S)n(C)c(=O)n(-c2cc(C3=NOC4(C(=O)OCc5ccccc5)CCCC34)c(Cl)cc2F)c1=O (stereo not shown) [Compound 51], the “Activity level … Beckmannia syzigachne” value (Beckmannia syzigachne; dose 15 g a.i./ha) is reported as 4 (Level 4: growth control rate is greater than or equal to 60% and less than 85%), the “Activity level … Conyza japonica” value (Conyza japonica; [1]) is reported as 4 (Level 4: growth control rate is greater than or equal to 60% and less than 85%) and the “Activity level … Capsella bursa-pastoris” value (Capsella bursa-pastoris; dose 15 g a.i./ha) is reported as 5 (Level 5: growth control rate is above 85%). For the same compound, the “Activity level … Alopecurus japonicus” value (Alopecurus japonicus; dose 15 g a.i./ha) was 4 (Level 4: growth control rate is greater than or equal to 60% and less than 85%).
Cn1c(=S)n(C)c(=O)n(-c2cc(C3=NOC4(C(=O)OCC5CCCO5)CCCC34)c(Cl)cc2F)c1=O (stereo not shown) [Compound 49] was tested, and the “Activity level … Beckmannia syzigachne” value (Beckmannia syzigachne; dose 15 g a.i./ha) was 5 (Level 5: growth control rate is above 85%), the “Activity level … Conyza japonica” value (Conyza japonica; [1]) was 4 (Level 4: growth control rate is greater than or equal to 60% and less than 85%) and the “Activity level … Capsella bursa-pastoris” value (Capsella bursa-pastoris; dose 15 g a.i./ha) was 5 (Level 5: growth control rate is above 85%). The “Activity level … Alopecurus japonicus” value (Alopecurus japonicus; dose 15 g a.i./ha) was 4 (Level 4: growth control rate is greater than or equal to 60% and less than 85%).
CCCOC(=O)C12CCCC1C(c1cc(-n3c(=O)cc(C(F)(F)F)n(C)c3=O)c(F)cc1Cl)=NO2 (stereo not shown) [Compound 216] was tested, and the “Activity level … Beckmannia syzigachne” value (Beckmannia syzigachne; dose 15 g a.i./ha) was 5 (Level 5: growth control rate is above 85%), the “Activity level … Conyza japonica” value (Conyza japonica; [1]) was 4 (Level 4: growth control rate is greater than or equal to 60% and less than 85%) and the “Activity level … Capsella bursa-pastoris” value (Capsella bursa-pastoris; dose 15 g a.i./ha) was 5 (Level 5: growth control rate is above 85%). The “Activity level … Alopecurus japonicus” value (Alopecurus japonicus; dose 15 g a.i./ha) was 5 (Level 5: growth control rate is above 85%).
Cn1c(C(F)(F)F)cc(=O)n(-c2cc(C3=NOC4(C(=O)N5CCCC5)CCCC34)c(Cl)cc2F)c1=O (stereo not shown) [Compound 427] was tested, and the “Activity level … Beckmannia syzigachne” value (Beckmannia syzigachne; dose 15 g a.i./ha) was 4 (Level 4: growth control rate is greater than or equal to 60% and less than 85%), the “Activity level … Conyza japonica” value (Conyza japonica; [1]) was 4 (Level 4: growth control rate is greater than or equal to 60% and less than 85%) and the “Activity level … Capsella bursa-pastoris” value (Capsella bursa-pastoris; dose 15 g a.i./ha) was 5 (Level 5: growth control rate is above 85%). The “Activity level … Alopecurus japonicus” value (Alopecurus japonicus; dose 15 g a.i./ha) was 5 (Level 5: growth control rate is above 85%).
With CCOC(=O)CCC12CCCC1C(c1cc(-n3c(=O)cc(C(F)(F)F)n(C)c3=O)c(F)cc1Cl)=NO2 (stereo not shown) [Compound 533] the “Activity level … Beckmannia syzigachne” value (Beckmannia syzigachne; dose 125 g a.i./ha) was 5 (Level 5: growth control rate is above 85%), the “Activity level … Conyza japonica” value (Conyza japonica; [2]) was 5 (Level 5: growth control rate is above 85%) and the “Activity level … Capsella bursa-pastoris” value (Capsella bursa-pastoris; dose 125 g a.i./ha) was 5 (Level 5: growth control rate is above 85%). The “Activity level … Alopecurus japonicus” value (Alopecurus japonicus; dose 125 g a.i./ha) was 5 (Level 5: growth control rate is above 85%).
COC(=O)C12CCOC1C(c1cc(-n3c(=O)cc(C(F)(F)F)n(C)c3=O)c(F)cc1Cl)=NO2 (stereo not shown) [Compound 372] was tested, and the “Activity level … Beckmannia syzigachne” value (Beckmannia syzigachne; dose 125 g a.i./ha) was 4 (Level 4: growth control rate is greater than or equal to 60% and less than 85%), the “Activity level … Conyza japonica” value (Conyza japonica; [2]) was 4 (Level 4: growth control rate is greater than or equal to 60% and less than 85%) and the “Activity level … Capsella bursa-pastoris” value (Capsella bursa-pastoris; dose 125 g a.i./ha) was 5 (Level 5: growth control rate is above 85%). For the same compound, the “Activity level … Alopecurus japonicus” value (Alopecurus japonicus; dose 125 g a.i./ha) was 4 (Level 4: growth control rate is greater than or equal to 60% and less than 85%).
